Results on eleven compounds are retold here after US4990538A, “Use of toremifene and its metabolites for the reversal of multidrug resistance of cancer cells against cytotoxic drugs” (priority 1989, dated 1991).

One data set deals with rat PKC. As to conditions: O'Brian et al; cited from earlier work.
Another data set deals with MCF-7/DOX cells. The data set is described as follows: Inhibition of cell growth / reversal of MDR in MCF-7/DOX cells (methylene blue). The data set is classed as cell-based, human. As to conditions: for Effectiveness in reversing MDR: MCF-7/DOX cells, Table 5 and FIG. 7; for Inhibition of cell growth, Actual: 2880 min.
For data set [1] the following is noted: at dose levels or concentrations required for MDR reversal; cited from earlier work.
Another data set has as its system MDR cell. As to conditions: Ramu et al; cited from earlier work.
The subject of data set [2] is MCF-7 oestrogen receptor positive breast cancer cell line. The settings on record: Foster et al, cited from earlier work; for Modulation of multidrug resistance: 10 μM tamoxifen or perhexilene maleate.
A further data set has as its system cultured cells. The settings on record: Sutherland et al; cited from earlier work.
A further data set has as its system PKC. As to conditions: Horgan et al; cited from earlier work.
For a further data set, the system named is CHO-Adr cells. The data set is described as follows: MTT cell viability assay in doxorubicin resistant CHO-Adr cells. The settings on record: CHO-Adr cell line. For orientation: Formazan colour is commonly taken as a measure of viable cells.
The next data set concerns Human melanoma UV-me-1. The data set is described as follows: Toremifene and doxorubicin in human melanoma UV-me-1. The settings on record: for Toremifene and doxorubicin in UV-me-1 (living cells): toremifene 0 μM, 2 days, control 100.
The test system of a further data set is Lewis Lung (LL) tumor. Nature of the data set: Schedule dependency of antitumor effect in Lewis Lung tumor. The procedure: (§1) Lewis Lung (LL) or melanoma B-16 tumor cells, 2×10^6 cells/animal, were inoculated intramuscularly to female C-57 mice. Tumors were allowed to grow to the mean diameter of 1.5 cm after which toremifene/doxorubicin treatments were started as indicated in the next tables. Tumor size was measured before treatment and after 10 days in 2 dimensions and the mean was considered as tumor diameter. Weight of the animals was also recorded.

For a further data set, the system named is HOV-018. Nature of the data set: Number of living cells (bioluminescence), ovarian cancer line HOV-018. As to conditions: toremifene 0 μM, 4320 min. The procedure:
(§2) Two human ovarian cell lines were established in vitro from fresh serous ovarian cancer tissues. The lines are coded HOV-007 and HOV-018. The cells were cultivated in Eagle's MEM containing 1% unstripped foetal calf serum. The assays were carried out at 37° C. in 5% CO2 on 96 well plates.

The next data set has as its system HOV-007. Nature of the data set: Number of living cells (bioluminescence), ovarian cancer line HOV-007. The settings on record: toremifene 0 μM, 3 days. The procedure:
as §2
presented. Number of cells was quantitated after 3 days'

The next data set has as its system B-16 melanoma. Nature of the data set: Schedule dependency of antitumor effect in B-16 melanoma. As for the experimental part:
as §1

[3] abbreviates: drug 0.6 μg/ml +1 μM doxorubicin.
Setting [4] is: doxorubicin 3 mg/kg s.c. days 1-5.
The mark [5] stands for this setting: doxorubicin 3 mg/kg s.c. days 6-10.

The structures appear in SMILES notation. “Also recorded” adds a separate entry of the source. Counter-ions that a name gives are not always drawn. Numbered stars: 1 amine (or outer) side, 2 acyl side, 3 side chain; on linkers, the order of the positions; unused ones are H or OH. Bridge positions count the residues as written; N and C are the ends. Square brackets hold non-standard residues; d marks the D form. Peptide text beside a SMILES is read from it. I, II: the chains in the order shown. Actinocin(9to1) = Cc1c2oc3c(C)ccc(C(=O)[*:1])c3nc-2c(C(=O)[*:2])c(N)c1=O; NMeV = CN[C@H](C(=O)O)C(C)C; Sar = CNCC(=O)O

Description for CHO-Adr cells: Initial cell growth studies were carried out to investigate the effect of combination toremifene +doxorubicin in doxorubicin sensitive and resistant cells. Cell cultures were carried out using wild type CHO-K1 cells as well as CHO-Adr cells, the latter being selected by a series of step-wise selections of doxorubicin resistant clones in presence of 0.4 ug/ml of doxorubicin. […] The resistant cells were stable in cell culture in the absence of doxorubicin. Both cell lines were cultivated in Hams F10 medium supplemented with 5% newborn calf serum, 5% foetal calf serum, antibiotics and 3mM glutamine. The cells were maintained as monolayer cultures 37° C. under 5% CO2. Drug sensitivity in CHO-K1and CHO-Adr cells was assessed by a semi-automated colorimetric MTT assay. The assay is dependent on the cellular reduction of MTT (3-U4,5-dimethylthiazol-2-ylA-2,5-diphenyl tertazolium bromide, thiazolyl blue) by the mitochondrial dehydrogenase of viable cells to a blue formazan product which was measured spectrophotometrically. The cells were seeded on 96-well plates and allowed to settle for 12 hours at 37° C. in 5% CO2. Appropriate drug concentrations diluted in growth medium were added for 24 hours. Toremifene was dissolved in 95% ethanol stock solution, doxorubicin stock solution was prepared in water. […] The cells were incubated with the drugs for 24 hours, after which the cells were washed twice with phosphate buffered saline before being placed in 200 μl fresh medium for a further 48 hours. At the end of this incubation 0.1 mg MTT was added to each well and incubated for 4 hours. The medium was carefully aspirated and the crystals were solubilised in 100 μ l DMSO (dimethyl sulfoxide). Absorbances at 540 nm were read immediately on an ELISA Multiskan reader. The results were expressed as a percentage of absorbance of drug treated cells compared to controls.
The effect of AAG in the concentration of 0.1 to 2 mg/ml was assessed on the potentiation produced by toremifene.
Description for MCF-7/DOX cells: The cells were cultivated in 100 ul volumes in 96-well microtiter plates. The principle of the method was to cultivate cells in the presence of the drugs/ drug combinations for 48 hours. After this time the living cells were stained with methylene blue and quantitated spectrophotometrically using microtiter plate reader (Titertek Model MCC/340) interfaced to an Apple IIe computer. Inhibition of the cell growth is expressed as a percentage of absorbance of vehicle treated control cultures.

Take `CCC(=C(c1ccc(O)cc1)c1ccc(OCCN(C)C)cc1)c1ccccc1` [4-hydroxy tamoxifen]: the “Inhibition of rat PKC activity in vitro” value in the data set on rat PKC is on record as “inhibition of rat PKC activity in vitro”.
Take `CN(C)CCOc1ccc(C(=C(CCCl)c2ccccc2)c2ccc(O)cc2)cc1` [4-hydroxytoremifene, 4-chloro-1-(4-hydroxyphenyl)-2-phenyl-1-(4-(2-(N,N-dimethylamino)ethoxy)phenyl)-1-butene]: the “Effectiveness in reversing MDR” value in the data set on MCF-7/DOX cells is reported as “slightly less effective”. Moreover, the “Inhibition of cell growth, Actual” value in the data set with MCF-7/DOX cells (setting [3]) was 28 % control; with MCF-7/DOX cells (drug […] +1 μM doxorubicin) it was 45 % control. Moreover, the “Potential (potentiation of doxorubicin activity)” value was 8 % control with MCF-7/DOX cells (setting [3]) and 10 % control in the data set on MCF-7/DOX cells (drug […] +1 μM doxorubicin).
Take `CNCCOc1ccc(C(=C(CCCl)c2ccccc2)c2ccccc2)cc1` [N-demethyltoremifene, 4-chloro-1,2-diphenyl-1-(4-(2-(N-methylamino)ethoxy)phenyl)-1-butene]: the “Effectiveness in reversing MDR” value in the data set with MCF-7/DOX cells is “almost equally effective”. In addition, the “Inhibition of cell growth, Actual” value was found to be 28 % control with MCF-7/DOX cells (setting [3]) and 40 % control with MCF-7/DOX cells (drug […] +1 μM doxorubicin). Further, the “Potential (potentiation of doxorubicin activity)” value is recorded as 33 % control in the data set with MCF-7/DOX cells (setting [3]) and 43 % control in the data set with MCF-7/DOX cells (drug […] +1 μM doxorubicin).
Turning to `CC/C(=C(\c1ccccc1)c1ccc(OCCN(C)C)cc1)c1ccccc1` [Tamoxifen, tamoxifen], the “Safety / toxicity in clinical use” value in data set [1] was “higher toxicity”. For the same compound, the “Effectiveness in reversing MDR” value in the data set with MCF-7/DOX cells is “almost equally effective”. Further, the “Reversal of MDR by triparonol analogues” value in the data set with MDR cell is recorded as “reversal of MDR”. In addition, in the data set with rat PKC, the “Inhibition of rat PKC activity in vitro” value was “inhibition of rat PKC activity in vitro”. In addition, in data set [2], the “Modulation of multidrug resistance” value is “modulation of multidrug resistance; also recorded: possess activity for reversing MDR”, the C14-doxorubicin accumulation entry is “no increase in C14-doxorubicin accumulation” and the “Effect of 50 nM estradiol on the effects of tamoxifen” value is on record as “did not attenuate the effects of tamoxifen”. For the same compound, the “Reversal by oestradiol of growth inhibitory effects of high doses” value with cultured cells is “could not be reversed by oestradiol”. The “Inhibition of PKC activity in vivo” value in the data set with PKC is “inhibition of PKC activity in vivo”.
As to `Cc1c2oc3c(C)ccc(C(=O)N[C@@H]4C(=O)N[C@H](C(C)C)C(=O)N5CCC[C@H]5C(=O)N(C)CC(=O)N(C)[C@@H](C(C)C)C(=O)O[C@@H]4C)c3nc-2c(C(=O)N[C@@H]2C(=O)N[C@H](C(C)C)C(=O)N3CCC[C@H]3C(=O)N(C)CC(=O)N(C)[C@@H](C(C)C)C(=O)O[C@@H]2C)c(N)c1=O` [actinomycin D, reference compound] (I: T[dV]P[Sar][NMeV] / II: T[dV]P[Sar][NMeV]; ester I:1-I:C, II:1-II:C; linker I:N-II:N via Actinocin(9to1)), the “Resistance of the CHO-Adr cell line” value in the data set with CHO-Adr cells is “cross-resistant”.
Consider `CCN(CC)CCOc1ccc(C(=C(Cl)c2ccccc2)c2ccccc2)cc1` [clomiphene], for which the “Reversal of MDR by triparonol analogues” value in the data set on MDR cell is on record as “reversal of MDR”.
For the compound `COc1cc2c(c(OC)c1OC)-c1ccc(OC)c(=O)cc1[C@@H](NC(C)=O)CC2` [colchicine, reference compound], the “Resistance of the CHO-Adr cell line” value in the data set on CHO-Adr cells is recorded as “cross-resistant”.
With `COc1cccc2c1C(=O)c1c(O)c3c(c(O)c1C2=O)C[C@@](O)(C(C)=O)C[C@@H]3O[C@H]1C[C@H](N)[C@H](O)[C@H](C)O1` [daunorubicin, reference compound], the “Resistance of the CHO-Adr cell line” value in the data set with CHO-Adr cells is “cross-resistant”.
Consider `COc1cccc2c1C(=O)c1c(O)c3c(c(O)c1C2=O)C[C@@](O)(C(=O)CO)C[C@@H]3O[C@H]1C[C@H](N)[C@H](O)[C@H](C)O1` [doxorubicin], for which, in the data set on CHO-Adr cells, the “Resistance of the CHO-Adr cell line” value is listed as “resistant”. Besides, in the data set with Human melanoma UV-me-1 (UV-me-1), the “Sensitivity of the cell line” value is given as “relatively sensitive”. The “Toremifene and doxorubicin in UV-me-1 (living cells)” value in the data set on Human melanoma UV-me-1 (doxorubicin 0.1 μg/ml) was 74; with Human melanoma UV-me-1 (doxorubicin 1.0 μg/ml), 9. For the same compound, the “Change of body weight” value is recorded as -2 g with Lewis Lung (LL) tumor (setting [4]), “+10 g” with Lewis Lung (LL) tumor (setting [5]), -5 g in the data set with B-16 melanoma (setting [4]) and -2 g in the data set with B-16 melanoma (setting [5]). Moreover, the “Change of tumor diameter” value in the data set with Lewis Lung (LL) tumor (setting [4]) was “+2.0 mm”; in the data set with Lewis Lung (LL) tumor (setting [5]) it was “+3.7 mm”. Further, the “Number of living cells” value in the data set on HOV-018 (doxorubicin 0.1 μg/ml) is 96% of control values; in the data set with HOV-018 (doxorubicin 0.3 μg/ml), 89% of control values; in the data set on HOV-007 (doxorubicin 0.1 μg/ml) it was 87% of control values; in the data set with HOV-007 (doxorubicin 0.3 μg/ml), 64% of control values; in the data set with HOV-007 (doxorubicin 1.0 μg/ml), 41% of control values. Further, the results for the “Change of tumor size” value in the data set with B-16 melanoma (setting [4]) and with B-16 melanoma (setting [5]) were “+1.9 mm” and “+3.1 mm”, respectively.
Take `COc1ccc2c(c1)CCC(c1ccccc1)=C2c1ccc(OCCN2CCCC2)cc1` [nafoxidine]: the “Reversal of MDR by triparonol analogues” value in the data set with MDR cell was “reversal of MDR”.
`C1CCC(C(CC2CCCCN2)C2CCCCC2)CC1` (stereo not shown) [perhexilene maleate, perhexiline maleate]: the “Modulation of multidrug resistance” value in data set [2] is listed as “modulation of multidrug resistance”.
